Data reported in US20130331417A1, “INSECTICIDAL MIXTURES WITH IMPROVED PROPERTIES” (BAYER INTELLECTUAL PROPERTY GMBH, priority 2010, published 2013).

Columns and labels:
Myzus persicae = Myzus persicae test, oil seed rape seed treatment; type: in vivo; settings: after 2 days
Method: (§1) The expected efficacy of a given combination of two compounds is calculated as follows (see Colby, S .R., “Calculating Synergistic and antagonistic Responses of Herbicide Combinations”, Weeds 15, pp. 20-22, 1967):
(§2) If the observed insecticidal efficacy of the combination is higher than the one calculated as “E”, then the combination of the two compounds is more than additive, i.e., there is a synergistic effect.
(§3) If not mentioned otherwise, the crystalline modification I of 4-{[(6-chloropyrid-3-yl)methyl](methyl)amino} furan-2(5H)-one has been prepared as a water-dispersible or water-soluble powder in an active ingredient concentration of 70% (wt/wt) involving the following formulation auxiliaries, whereas the amount of auxiliaries sums up to 100 wt. %:
(§4) The auxiliaries were mixed with the appropriate amount of the crystalline modification I of 4-{[(6-chloropyrid-3-yl)methyl](methyl)amino} furan-2(5H)-one. There is no water or solvent added. To enable the dry mixture to stick on the seed, the seed were treated with a minimal amount of water, namely 30 μl for 2 g canola seeds, and 800 μl für 20 g cotton seeds.
Seeds of Oil seed rape were treated with the compounds or mixtures and sown. Ca. […]
After the specified period of time, the mortality in % is determined 100% means that all the aphids have been killed; 0% means that none of the aphids have been killed.

Aphis gossypii = Aphis gossypii test, cotton seed treatment; type: in vivo
Method: as §1, §2, §3, §4
Cotton seeds were treated with the compounds or mixtures and sown. 10 days after germination the plants were infested with a mixed population of the cotton aphid (Aphis gossypii). After the specified period of time, the mortality in % is determined 100% means that all the aphids have been killed; 0% means that none of the aphids have been killed.

SMILES: C/C(=N\C#N)N(C)Cc1ccc(Cl)nc1 [Acetamiprid]
- Mortality (Myzus persicae; 1 mg ai/seed): 0%

SMILES: CN(Cc1ccc(Cl)nc1)C1=CC(=O)OC1 [4-{[(6-chloropyrid-3-yl)methyl](methyl)amino} furan-2(5H)-one]
- Mortality (Myzus persicae; 0.025 mg ai/seed, infested ca. 35 days after germination): 40%
- Mortality (Aphis gossypii; after 2 days (head above the row), 0.01 mg ai/seed): 60%
- Mortality (Aphis gossypii; after 2 days, 0.025 mg ai/seed, infested 10 days after germination): 35%

SMILES: O=[N+]([O-])NC1=NCCN1Cc1ccc(Cl)nc1 [Imidacloprid]
- Mortality (Aphis gossypii; after 3 days, 0.01 mg ai/seed): 0%

SMILES: CCOC(=O)OC1=C(c2cc(C)ccc2C)C(=O)N[C@]12CC[C@@H](OC)CC2 [Spirotetramat]
- Mortality (Aphis gossypii; after 2 days, 5 mg ai/seed): 0%
